Test [1] relates to human PBMC. Briefly: ConA mitogen-stimulated proliferation of human PBMC ([3H]-thymidine incorporation). The test is classed as cell-based. As to conditions: Experiment II, read-out: IC50 in inhibition of ConA induced cell proliferation of PBMC. On the procedure:
Blood specimens were obtained with consent from healthy human volunteers. Human peripheral blood mononuclear cells (PBMC) were isolated from heparinised whole blood by buoyant density centrifugation over Histopaque 1077 (Sigma, Poole, UK) at 600 g for 20 minutes. PBMC harvested from the ‘buffy’ layers were washed twice with RPMI 1640 medium and resuspended in CTCM. […] Human PBMC were incubated for 48 h at 37° C. in 5% CO2-air, followed by pulsing with 0.25 μCi [^3H]-thymidine (see above). After a further incubation of 24 h cells were harvested onto fibreglass filters and then counted in the presence of MicroScint-O with the Packard TopCount.
Concanavalin induced cell proliferation of human peripheral blood mononuclear cells (PBMC) was tracked, as described in I above, by a measurement of counts per minute using the scintillation counter. The inhibitory effect of an HSL compound being tested on cell proliferation was indicated by a reduction in counts per minute. […] Columns B, C and D represent different sources of human PBMC samples used.
Plots of counts per minute (cpm) against the concentration of the quorum sensing molecules and the vehicle are shown in FIG. 11.
(In general: Uptake of a labelled nucleoside into DNA is a usual measure of proliferation.)

Test [2] has as its system murine splenocytes. Briefly: ConA mitogen-stimulated proliferation of murine splenocytes ([3H]-thymidine incorporation). The test is classed as cell-based, mouse (BALB/c). As to conditions: for IC50: ConA 1 μg/ml, 100,000 spleen cells, Experiment I, read-out: IC50 in inhibition of ConA induced murine splenocyte proliferation. As for the experimental part: (§1) Proliferation was assessed by the incorporation of [^3H]-thymidine into DNA. Eight-week-old female BALB/c mice were obtained from Harlan (Bicester, Oxon, UK) and given food and water ad libitum. Splenocyte suspensions were prepared by removing the spleens and placing them into RPMI 1640 medium. The spleens were forced through 70-μm-pore-size wire gauzes using the plunger from a 5-ml syringe to produce a single cell suspension. The cells were pelleted by centrifugation, and erythrocytes were lysed with 0.017 M Tris, 0.144 M ammonium chloride buffer, pH 7.2. Leucocytes were washed twice with RPMI 1640 medium with 2% (vol/vol) foetal calf serum (FCS) and resuspended in complete cell culture medium (CTCM) consisting of RPMI 1640 medium with 5% FCS, 2 mM L-glutamine, and 5×10^−5 M 2-mercaptoethanol. HSL compounds were tested at doubling down dilutions ranging from 1 mM to 0.1 μM in a final volume of 200 μl of CTCM, containing ConA (Sigma, Poole, UK) at 1 μg/ml and 100,000 spleen cells. Following incubation for 48 h at 37° C. in 5% CO2-air, 0.25 μCi [^3H]-thymidine (Amersham) in 10 μl volume made up in RPMI 1640 medium was added and the cells were incubated for a further 24 h. Cells were harvested onto fibreglass filters with a Packard filtermate harvester. After the addition of 25 μl of MicroScint-O (Packard) to each well the filters were counted with the Packard TopCount scintillation counter.
Mitogen (Concanavalin A) induced murine splenocyte proliferation was indicated by the incorporation of tritated thymidine into the DNA in the mouse spleen cells as shown by counts per minute using the scintillation counter. The inhibitory effect of an HSL compound being tested on cell proliferation was indicated by a reduction in counts per minute.
as §1, with “70 μm pore size” for “70-μm-pore-size”, “5 ml” for “5-ml”, “The title compound was” for “HSL compounds were”, “dilutions” for “dilutions ranging from 1 mM to 0.1 μM in a final volume of 200 μl of CTCM,”, “g/ml” for “μg/ml”, “COrair,” for “CO2-air,”
Mitogen (Concanavalin A) induced murine splenocyte proliferation was indicated by the incorporation of tritated thymidine into the DNA in the mouse spleen cells as shown by counts per minute using the scintillation counter. The inhibitory effect of the title compound being tested on cell proliferation was indicated by a reduction in counts per minute.

The subject of test [3] is TNF-alpha. Kind of test: TNF-alpha production from LPS-stimulated human PBMC (sandwich ELISA). Type of test: cell-based. As for the experimental part: Bacterial lipopolysaccharide (LPS) stimulates the production of a variety of cytokines, including TNF-alpha, from human PBMC; these cytokines in turn influence the development of T cells, supporting a T helper 1 conducive milieu. Human PBMC prepared from whole blood by buoyant density centrifugation were resuspended in CTCM. […] Following incubation for 24 h at 37° C. in 5% CO2-air, the cell culture supernatants were collected and tested for TNF-alpha levels by ‘sandwich’ ELISA. Briefly, 96-well Nunc MaxiSorp (Life Technologies, Paisley, UK) plates were coated with 50 μl of a 2 μg/ml solution of mouse anti-human TNF-alpha monoclonal antibody (Pharmingen, UK) in 0.05 M carbonate/bicarbonate buffer, pH 9.6 overnight at 4° C. After washing the plates three times with PBS-Tween, which contained phosphate buffered saline (PBS) with 0.5% (vol/vol) Tween 20 (Sigma, Poole, UK), the plates were blocked with 1% (wt/vol) bovine serum albumin (BSA) (Sigma, Poole, UK) at room temperature for 2 h. Following three washes with PBS-Tween, 50 μl of cell culture supernatants were added and incubated overnight at 4° C.; standard human TNF-alpha (Pharmingen, UK) ranging from 2000 to 31.25 pg/ml were included for each plate. After four washes with PBS-Tween, 50 μl of a second antibody, biotinylated mouse anti-human TNF-alpha monoclonal antibody (Pharmingen, UK) was added at 0.5 μg/1 ml diluted in 1% BSA in PBS-Tween and incubated at room temperature for 1 h. Following four washes, the bound biotinylated antibody was detected with 50 μl of a 1:1,000 dilution of Streptavidin-peroxidase (Pharmingen, UK). At the end of an hour incubation at room temperature, the plates were thoroughly washed six times with PBS-Tween and the assay was developed by the addition of 100 μl of 0.1 mg/ml of tetramethyl benzidine subtrate (Sigma, Poole, UK) in 0.1 M sodium acetate buffer, pH 6 containing 0.03% H2O2. The enzyme reaction was stopped with 50 μl of 2.5 M H2SO4 after an incubation of 10 minutes at room temperature and the development was read at 450 nm with a spectrophotometric 96-well plate reader (Dynex).
A general note: ELISA stands for enzyme-linked immunosorbent assay.

Where two headings read alike, the source gives them in different places.

In the case of `CCCCCCCCC(=O)CC(=O)N[C@H]1CCOC1=O` [Example 1, N-(3-oxoundecanoyl)-L-homoserine lactone], the IC50 in test [1] (human PBMC source B) is 63 µM; in test [1] (human PBMC source C), 13 µM; in test [1] (human PBMC source D), 44 µM; in test [2] it was 9 µM.

`O=C(CCCCCCCCBr)CC(=O)N[C@H]1CCOC1=O` [Example 2, N-(11-Bromo-3-oxoundecanoyl)-L-homoserine lactone]: the figures for the IC50 in test [1] (human PBMC source B) and in test [2] were 18 µM and 6 µM, respectively. As to `CC(C)CCCCCCC(=O)CC(=O)N[C@H]1CCOC1=O` [Example 3, N-(10-Methyl-3-oxoundecanoyl)-L-homoserine lactone], the IC50 in test [1] (human PBMC source D) worked out at 25 µM; in test [2], 8 µM. Turning to `COC(=O)CCCCCCC(=O)CC(=O)N[C@H]1CCOC1=O` [Example 4, N-(10-Methoxycarbonyl-3-oxodecanoyl)-L-homoserine lactone], the IC50 was 20 µM in test [1] (human PBMC source B), 63 µM in test [1] (human PBMC source D) and 73 µM in test [2]. In the case of `CCCCCC(C)CCC(=O)CC(=O)N[C@H]1CCOC1=O` (stereo partly drawn) [Example 5, N-(6-Methyl-3-oxoundecanoyl)-L-homoserine lactone], the IC50 in test [1] (human PBMC source B) is 20 µM; in test [2] it was 5 µM.

Turning to `CCCCCCCCCCC(=O)CC(=O)N[C@H]1CCOC1=O` [Example 8, N-(3-Oxotridecanoyl)-L-homoserine lactone], the IC50 in test [1] (human PBMC source B) is 41 µM; in test [1] (human PBMC source C), 7 µM; in test [1] (human PBMC source D), 25 µM; in test [2] it was 4 µM. For `O=C(CCCCCCCCCCBr)CC(=O)N[C@H]1CCOC1=O` [Example 9, N-(13-Bromo-3-oxotridecanoyl)-L-homoserine lactone], the IC50 is 8 µM in test [1] (human PBMC source B), 12 µM in test [1] (human PBMC source D) and 3 µM in test [2]. On to `C=CCCCCCCCCC(=O)CC(=O)N[C@H]1CCOC1=O` [Example 10, N-(3-Oxo-12-tridecenoyl)-L-homoserine lactone], for which the IC50 in test [2] stood at 7 µM. Same read-out and setting: then `O=C(CCCCCCCCCCCBr)CC(=O)N[C@H]1CCOC1=O` [Example 12, N-(14-Bromo-3-oxotetradecanoyl)-L-homoserine lactone], with 8 µM. Regarding `COC(=O)CCCCCCCCCCC(=O)CC(=O)N[C@H]1CCOC1=O` [Example 13, N-(13-Methoxycarbonyl-3-oxotridecanoyl)-L-homoserine lactone], the values for the IC50 in test [1] (human PBMC source B), in test [1] (human PBMC source D) and in test [2] were 15 µM, 20 µM and 6 µM, respectively. For the compound `CCCCCCC=CCCCC(=O)CC(=O)N[C@H]1CCOC1=O` [Example 14, N-(3-Oxo-7-tetradecenoyl)-L-homoserine lactone], in test [2], the IC50 turned out to be 17 µM. On to `CCCC=CCCCCCCC(=O)CC(=O)N[C@H]1CCOC1=O` [Example 16, N-(3-Oxo-10-tetradecenoyl)-L-homoserine lactone], for which the IC50 in test [2] stood at 15 µM. Same read-out and setting: then `CCC=CCCCCCCCC(=O)CC(=O)N[C@H]1CCOC1=O` [Example 17, N-(3-Oxo-11-tetradecenoyl)-L-homoserine lactone], with 12 µM; and `C=CCCCCCCCCCC(=O)CC(=O)N[C@H]1CCOC1=O` [Example 18, N-(3-Oxo-13-tetradecenoyl)-L-lactone homoserine], with 10 µM. Regarding `O=C(CCCCCCCCCO)CC(=O)N[C@H]1CCOC1=O` [Example 19, N-(12-Hydroxy-3-oxododecanoyl)-L-homoserine lactone], the IC50 in test [3] (Experiment III, read-out: IC50 in inhibition of LPS induced production of TNF-α by human PBMC) is 70 µM; in test [2] it was 9 µM.

`CN(C)C(=O)CCCCCCCCC(=O)CC(=O)N[C@H]1CCOC1=O` [Example 20, N-[11-(N,N-Dimethylcarbamoyl)-3-oxoundecanoyl]-L-homoserine lactone]: the IC50 in test [2] was found to be 35 µM. The same measure, in the same setting: to `CCCCCCCCCC(O)CC(=O)N[C@H]1CCOC1=O` (stereo partly drawn) [Example 21, N-(3-Hydroxydodecanoyl)-L-homoserine lactone] belongs 12 µM; to `CCCCCCCCCCCC(O)CC(=O)N[C@H]1CCOC1=O` (stereo partly drawn) [Example 22, N-(3-Hydroxytetradecanoyl)-L-homoserine lactone], 7 µM. With `CCCCCCC=CCCCC(O)CC(=O)N[C@H]1CCOC1=O` (stereo partly drawn) [Example 23, N-(3-Hydroxy-7-tetradecenoyl)-L-homoserine lactone], in test [2], the IC50 was found to be 12 µM. Same read-out and setting: to `CCCC=CCCCCCCC(O)CC(=O)N[C@H]1CCOC1=O` (stereo partly drawn) [Example 25, N-(3-Hydroxy-10-tetradecenoyl)-L-homoserine lactone] belongs 20 µM; to `CCC=CCCCCCCCC(O)CC(=O)N[C@H]1CCOC1=O` (stereo partly drawn) [Example 26, N-(3-Hydroxy-11-tetradecenoyl)-L-homoserine lactone], 20 µM; to `C=CCCCCCCCCCC(O)CC(=O)N[C@H]1CCOC1=O` (stereo partly drawn) [Example 27, N-(3-Hydroxy-13-tetradecenoyl)-L-homoserine lactone], 18 µM. Consider `CCCC(=O)CC(=O)N[C@H]1CCOC1=O` [OHHL, reference compound], for which the “inhibition of LPS induced TNF-α production by human PBMC, in words” value in test [3] (LPS-stimulated human PBMC) was “difference in activity between OHHL and OdDHL is marked”. In the case of `CCCCCC(=O)CC(=O)N[C@H]1CCOC1=O` [OOHL, N-(3-oxooctanoyl)-L-homoserine lactone, reference compound], the “inhibition of ConA induced murine splenocyte proliferation (cpm), in words” value in test [2] (ConA 1 μg/ml, BALB/c splenocytes) is “failed to inhibit proliferation”. As for “N-(3-Hydroxy-9-tetradecenoyl)-L-homoserine lactone [Example 24]”, the IC50 in test [2] was 15 µM.

Values taken from patent publication US7371779B2, “Synergistic compositions of N-acylhomoserine lactones and 4-quinolones” (The Secretary of State for Defense Science and Technology, priority 2001, dated 2008).
